How the values were obtained:
PPAR-γ and Trap220 = molecular target: T1, PPAR-γ and Trap220 (Homo sapiens, UniProt P37231); assay: binding capacity with Trap220 (mammalian two-hybrid assay) in CHO-K1 cells; format: cell-based; details: compared to the positive control drug rosiglitazone, FIG. 1
T1 construct: expressed in transfected cells; host or cells: CHO-K1 (CCL-61, ATCC)
T1 sequence (P37231 238-503 limits assumed): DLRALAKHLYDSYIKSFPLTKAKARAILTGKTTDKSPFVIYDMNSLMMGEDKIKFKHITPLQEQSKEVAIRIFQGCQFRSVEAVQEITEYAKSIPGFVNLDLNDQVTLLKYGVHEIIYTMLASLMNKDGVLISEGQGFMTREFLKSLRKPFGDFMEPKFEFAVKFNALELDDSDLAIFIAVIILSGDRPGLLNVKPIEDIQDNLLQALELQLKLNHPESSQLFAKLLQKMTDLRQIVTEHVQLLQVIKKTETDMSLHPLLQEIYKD
Experimental: Following induction of transient intracellular expression of PPAR-γ and Trap220, the binding capacity of the inventive compounds to a cofactor Trap220 after activation of PPAR-γ by the action of the inventive compounds was evaluated (mammalian two-hybrid assay).
For this purpose, a […] ovary cell line CHO-K1 (CCL-61, ATCC) was used as a test cell line. DNA constructs used in this assay were an expression vector pVP16 (Clontech) constructed to express a fusion of a human PPAR-γ2 ligand-binding domain with an activation domain of the […], and an expression vector pM (Clontech) constructed to express a fusion of human Trap220 with the GAL4 DNA-binding domain. Rosiglitazone maleate (Alcon Biosciences Private Limited), which is clinically used as a PPAR-γ agonist, was employed as a control drug.
The CHO-K1 cells were transiently transfected with two DNA constructs expressing the chimeric receptors and DNA constructs comprising 5 copies of the GAL4 DNA-binding domain and capable of inducing expression of firefly luciferase or Renilla luciferase using a Lipofectamine Plus reagent (Invitrogen, USA). Subsequent processes were carried out in the same manner as in the transactivation assay. The experimental results were expressed as an increase of the responsiveness vs. the negative control group with no addition of the drug.

[1] = test system: diabetic male mice (db/db mice); assay: blood glucose-lowering effects in mice with hyperglycemic diabetes; format: in vivo; details: for % Inhibition vs. Control / Blood glucose D5: oral once a day for 5 days
Experimental: Effects of PPAR compounds on a blood glucose level were evaluated in 7-week-old diabetic male mice (db/db mice). Blood was collected from caudal veins of the diabetic animals to which the drug was administered once a day for 5 consecutive days, and the blood glucose level was then measured with a blood glucose test meter (ACCU CHEK Active®).

Trap220 = details: cited from earlier work

Row | responsiveness (binding capacity with Trap220) (PPAR-γ and Trap220) | SMILES | % Inhibition vs. Control ([1]; 1 mg/kg) [%] | Blood glucose D5 ([1]; 1 mg/kg) [mg/dL] | % Inhibition vs. Control ([1]; 3 mg/kg) [%] | Blood glucose D5 ([1]; 3 mg/kg) [mg/dL] | % Inhibition vs. Control ([1]; 10 mg/kg) [%] | Blood glucose D5 ([1]; 10 mg/kg) [mg/dL] | Blood glucose D0 ([1]; oral, 1 mg/kg) [mg/dL] | Blood glucose D0 ([1]; oral, 3 mg/kg) [mg/dL] | Blood glucose D0 ([1]; oral, 10 mg/kg) [mg/dL] | ED30 ([1]; oral, blood glucose) [mg/kg] | binding capacity for Trap220 (Trap220)
1 | reduced responsiveness | CCO[C@@H](Cc1ccc(OCc2sc(-c3ccc(-c4cc(C)no4)cc3)cc2C)cc1)C(=O)[O-].[Na+] [Example 43, sodium (S)-2-ethoxy-3-(4-((3-methyl-5-(4-(3-methylisoxazol-5-yl)phenyl)thiophen-2-yl)methoxy)phenyl)propanoate] | – | – | – | – | – | – | – | – | – | – | –
2 | – | O=S(=O)(Nc1cc(Cl)c(Oc2cnc3ccccc3c2)c(Cl)c1)c1ccc(Cl)cc1Cl [INT-131, reference compound] | 8 | 350 ± 31 | 25 | 286 ± 34 | 38 | 237 ± 19 | 381 ± 30 | 382 ± 31 | 382 ± 28 | 4 | attenuated binding capacity

From US20100063041A1, “NOVEL PHENYLPROPIONIC ACID DERIVATIVES AS PEROXISOME PROLIFERATOR-ACTIVATED GAMMA RECEPTOR MODULATORS, METHOD OF THE SAME, AND PHARMACEUTICAL COMPOSITION COMPRISING THE SAME” (priority 2007, published 2010)
